We go through three compounds from patent US20080255162A1, “Pyrrolyl Substituted Pyrido[2,3-D]Pyrimidin-7-Ones and Derivatives Thereof as Therapeutic Agents” (WARNER-LAMBERT COMPANY LLC, priority 2004, published 2008).

By IC50 is commonly meant the midpoint of a concentration-inhibition curve.

Experiment [1] concerns the target T1, PI3Kγ (purified recombinant p101/p110γ protein) (Homo sapiens, UniProt P48736).
T1 construct: HA; made in house; host or cells: Spodoptera frugiperda Sf9 cells (baculovirus co-infection)
Briefly: PI3Kγ In Vitro Kinase Assay. In kind it is biochemical. Conditions: final ATP 20 μM, 25 μM PIP2, G protein β1/γ2 subunits, 20 minutes at room temperature. The method, then:
Spodtera frugiperda cells, grown in ESF921 media, were co-infected with baculovirus expressing a glu-tagged p101 and baculovirus expressing an HA-tagged p110γ, at a 3:1 ratio of p101 baculovirus to p110γ baculovirus. Sf9 cells were grown to 1×10^7 total cells/mL in 10 L bioreactors and harvested 48-72 hours post infection. Samples of infected cells were then tested for expression of p101/p110γ PI3 kinase by immunoprecipitation and Western Blot analysis methods (see below).
To purify PI3Kγ, 4 volumes of room temperature hypotonic lysis buffer (1 mM MgCl2, 1 mM DTT, 5 mM EGTA, 1 mM Pefabloc, 0.5 μM aprotinin, 5 μM leupeptin, 2 μM pepstatin, 5 μM E64, pH 8) per gram of cell paste, was poured onto frozen cell pellets with stirring, then lysed in a nitrogen “bomb” at 400 psi (599HC T316, Parr Instrument Co, Moline, Ill.). NaCl was added to 150 mM, and sodium cholate was added to 1% and mixed for another 45 minutes. The lysates were clarified by centrifugation for 25 minutes at 14,000 rpm. The lysates were then loaded over anti-glu-linked Protein-G Sepaharose beads (Covance Research Products, Richmond, Calif.) using 20 mL resin/50 g cell paste. The column was washed with 15 volumes of wash buffer (1 mM DTT, 0.2 mM EGTA, 1 mM Pefabloc, 0.5 μM aprotinin, 5 μM leupeptin, 2 μM pepstatin, 5 μM E64, 150 mM NaCl, 1% sodium cholate, pH 8). PI3Kγ was eluted with 6 column volumes of wash buffer that contain 100 μg/mL of a peptide that competes for binding of the glu tag. The column fractions with the eluted protein (determined by taking OD280 readings) were collected and dialyzed in 0.2 mM EGTA, 1 mM DTT, 1 mM Pefabloc, 5 μM leupeptin, 0.5% sodium cholate, 150 mM NaCl, and 50% glycerol, pH 8. The fractions were stored at −80° C. until further use.
Spodtera frugiperda cells were coinfected with baculovirus expressing a glu-tagged G protein β1 and baculovirus expressing a G protein β2, at a 1:1 ratio of glu-tagged G protein β1 baculovirus to G protein β2 baculovirus. Sf9 cells are grown in 10 L bioreactors and harvested 48-72 hours post infection. Samples of infected cells were tested for G protein β1/β2 expression by Western Blot analysis, as described below. Cell lysates were homogenized and loaded onto a column of glu-tagged beads as in Biological Example 1 and competed off the column with a glu peptide and processed as described in Biological Example 1.
The inhibitory properties of the compounds in Table 1 were assayed in an in vitro PI3K assay. In a 96-well polypropylene plate, each well was spotted with 2 μL of 50 times the desired final concentration of compound in DMSO. Purified recombinant p101/p110γ protein (0.03 μg; ˜2.7 nM) and G protein β1/γ2 subunits (0.09 μg; ˜57.7 nM) for each reaction was combined in the assay buffer (30 mM HEPES, 100 mM NaCl, 1 mM EGTA, and 1 mM DTT). ATP and [γ-^32P-ATP] (0.09 μCi) were added to this mixture so that the final ATP concentration in the reaction was 20 μM. Lipid micelles were formed by sonicating phosphatidylinositol-4,5-diphosphate (PIP2), phosphatidylethanolamine (PE), and Na-cholate in the assay buffer for 10 minutes, adding MgCl2 and incubating on ice for 20 minutes, for final concentrations of 25 μM PIP2, 300 μM PE, 0.02% Na-cholate, and 10 mM MgCl2 in the reaction. The reactions were started by adding equal volumes lipid and enzyme mixture in a total volume of 50 μL, allowed to run for 20 minutes at room temperature, and stopped with 100 μL 75 mM H3PO4. The lipid product was transferred to a glass fiber filter plate and washed with 75 mM H3PO4 several times. The presence of radioactive lipid product (PIP3) was measured by adding Wallac Optiphase mix to each well and counting in a Wallac 1450 Trilux plate reader (PerkinElmer Life Sciences Inc., Boston, Mass. 02118). The IC50 for each compound tested is reported in μM in the Table 2: […]

The target of the next experiment is CDK2/cyclin A (Homo sapiens, UniProt P24941). As to the kind of experiment: CDK2/cyclinA In Vitro Kinase Assay. Conditions: 10 μM of each compound; Histone H1 substrate; 0.02 mM ATP; activity as percentage of controls with DMSO alone, mean of duplicates. In kind it is biochemical. Here is the method:
The inhibitory properties of the compounds of Examples 19, 24, and 31 were assayed in an in vitro CDK2/cyclinA assay at 10 μM of each compound in DMSO. CDK2/cyclin A (5-20 mU diluted in 50 mM Hepes pH 7.5, 1 mM DTT, 0.02% Brij35, 100 mM NaCl) was assayed against Histone H1 in a final volume of 25.5 μl containing 50 mM Hepes pH7.5, 1 mM DTT, 0.02% Brij35, 100 mM NaCl, Histone H1 (1 mg/ml), 10 mM magnesium acetate and 0.02 mM [^33P-γ-ATP](500-1000 cpm/pmole) and incubated for 30 min at room temperature. Assays were stopped by addition of 5 μl of 0.5 M (3%) orthophosphoric acid and then harvested onto P81 Unifilter plates and washed with 50 mM orthophosphoric acid. The filter plates were then counted in a scintillation counter.
The results in Table 3 are expressed as percentage of controls with DMSO alone (mean of duplicates ±the standard deviation from the mean).

T1 sequence (P48736 whole entry, species assumed): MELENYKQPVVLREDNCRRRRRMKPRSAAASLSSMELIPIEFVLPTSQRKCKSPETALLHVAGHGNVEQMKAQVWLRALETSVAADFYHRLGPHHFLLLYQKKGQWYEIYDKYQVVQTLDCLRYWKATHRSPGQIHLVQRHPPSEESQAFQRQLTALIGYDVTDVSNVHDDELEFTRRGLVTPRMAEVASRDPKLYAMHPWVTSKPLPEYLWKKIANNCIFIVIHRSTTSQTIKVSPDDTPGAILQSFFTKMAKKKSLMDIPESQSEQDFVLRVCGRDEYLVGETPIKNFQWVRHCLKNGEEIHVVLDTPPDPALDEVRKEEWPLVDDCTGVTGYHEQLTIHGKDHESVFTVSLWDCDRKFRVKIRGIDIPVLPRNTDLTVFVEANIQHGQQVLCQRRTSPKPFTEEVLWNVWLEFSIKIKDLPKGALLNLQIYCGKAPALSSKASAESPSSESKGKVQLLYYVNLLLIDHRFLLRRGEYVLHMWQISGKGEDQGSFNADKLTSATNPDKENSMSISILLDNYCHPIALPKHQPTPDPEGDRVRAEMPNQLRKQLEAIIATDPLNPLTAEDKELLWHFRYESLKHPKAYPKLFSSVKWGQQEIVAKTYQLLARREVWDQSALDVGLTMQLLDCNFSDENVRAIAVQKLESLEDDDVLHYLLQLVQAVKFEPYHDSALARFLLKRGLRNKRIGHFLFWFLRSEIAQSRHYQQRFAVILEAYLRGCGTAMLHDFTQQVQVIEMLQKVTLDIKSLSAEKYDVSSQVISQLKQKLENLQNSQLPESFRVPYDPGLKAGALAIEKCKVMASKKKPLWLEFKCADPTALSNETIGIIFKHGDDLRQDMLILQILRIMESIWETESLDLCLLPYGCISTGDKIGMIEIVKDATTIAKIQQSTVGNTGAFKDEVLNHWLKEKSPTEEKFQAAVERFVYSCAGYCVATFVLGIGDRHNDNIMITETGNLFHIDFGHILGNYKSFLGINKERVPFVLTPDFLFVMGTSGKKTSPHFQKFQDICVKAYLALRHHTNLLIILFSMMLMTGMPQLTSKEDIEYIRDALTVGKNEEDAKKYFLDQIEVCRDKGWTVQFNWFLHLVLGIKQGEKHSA
T1 sequence (Q8WYR1 whole entry partner, species assumed): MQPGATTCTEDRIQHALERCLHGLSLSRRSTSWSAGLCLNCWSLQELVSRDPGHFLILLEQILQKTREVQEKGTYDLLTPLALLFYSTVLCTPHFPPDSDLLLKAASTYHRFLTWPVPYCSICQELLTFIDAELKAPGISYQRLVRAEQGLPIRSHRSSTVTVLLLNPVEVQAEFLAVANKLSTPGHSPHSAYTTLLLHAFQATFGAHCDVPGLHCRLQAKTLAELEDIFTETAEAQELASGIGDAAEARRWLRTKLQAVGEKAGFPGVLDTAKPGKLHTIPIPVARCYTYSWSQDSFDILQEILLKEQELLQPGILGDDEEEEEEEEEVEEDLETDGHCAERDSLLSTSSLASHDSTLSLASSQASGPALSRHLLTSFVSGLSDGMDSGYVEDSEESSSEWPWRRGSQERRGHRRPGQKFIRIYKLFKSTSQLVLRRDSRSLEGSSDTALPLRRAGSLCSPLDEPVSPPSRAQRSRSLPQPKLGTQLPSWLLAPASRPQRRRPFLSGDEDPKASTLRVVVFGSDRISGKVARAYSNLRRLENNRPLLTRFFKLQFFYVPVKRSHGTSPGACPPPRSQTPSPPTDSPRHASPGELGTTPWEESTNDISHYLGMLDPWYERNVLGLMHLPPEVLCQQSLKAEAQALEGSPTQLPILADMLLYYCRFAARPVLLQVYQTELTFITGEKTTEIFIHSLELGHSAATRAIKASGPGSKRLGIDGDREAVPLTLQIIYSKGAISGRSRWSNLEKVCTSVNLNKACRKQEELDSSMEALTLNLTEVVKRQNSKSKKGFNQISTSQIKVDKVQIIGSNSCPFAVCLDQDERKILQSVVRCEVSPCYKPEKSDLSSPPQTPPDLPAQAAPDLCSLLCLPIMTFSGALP

Take `Cc1nc(Nc2cc(C(=O)O)n(C)c2)nc2c1ccc(=O)n2C1CCOCC1` [Example 19, 1-Methyl-4-[4-methyl-7-oxo-8-(tetrahydro-pyran-4-yl)-7,8-dihydro-pyrido[2,3-d]pyrimidin-2-ylamino]-1H-pyrrole-2-carboxylic acid]: the IC50 in experiment [1] is 34 nM. In addition, the “% of DMSO control (mean ± S.D.)” value on CDK2/cyclin A stood at 101 ± 6%.
The matching figures for `Cc1nc(Nc2cc(C(=O)O)n(C)c2)nc2c1cc(F)c(=O)n2C1CCCC1` [Example 24, 4-(8-Cyclopentyl-6-fluoro-4-methyl-7-oxo-7,8-dihydro-pyrido[2,3-d]pyrimidin-2-ylamino)-1-methyl-1H-pyrrole-2-carboxylic acid]: 9 nM and 85 ± 9%.
The matching figures for `CCn1c(=O)c(Cl)cc2c(C)nc(Nc3cc(C(=O)O)n(C)c3)nc21` [Example 31, 4-(6-Chloro-8-ethyl-4-methyl-7-oxo-7,8-dihydro-pyrido[2,3-d]pyrimidin-2-ylamino)-1-methyl-1H-pyrrole-2-carboxylic acid]: 5 nM and 104 ± 1%.
